Results from patent US20220396586A1, “THIAZOLE CARBOXAMIDE COMPOUNDS AND USE THEREOF FOR THE TREATMENT OF MYCOBACTERIAL INFECTIONS” (THE GLOBAL ALLIANCE FOR TB DRUG DEVELOPMENT, INC., priority 2019, published 2022).
Values after ≈ are worked out from the molar mass of the structure shown.

Tests used:
M. ab_ATCC = assay: MIC against Mycobacterium abscessus (M. ab_ATCC, MHII), procedure of Franz 2017; type: cell-based; settings: Mycobacterium abscessus ATCC; for MIC: Mycobacteroides abscessus
Excerpt: The procedure described in Franz 2017 was used to generate the data shown in column 2 of Table 1.

M. tb H37Rv = assay: MIC determination against M. tb H37Rv (MIC-MABA); type: cell-based, Mycobacterium tuberculosis; settings: 7H9 broth, 10 days exposure, MIC = lowest concentration inhibiting fluorescence by 90%; for MIC: Mycobacterium tuberculosis, H37RV, 240 h, read-out: M. tb H37Rv: MIC-MABA, M. tb H37Rv

C[Si]1(C)CCCC(NC(=O)c2cc3sc(-c4ccccc4)nc3[nH]2)CC1 (racemic) [MPL-357, N-(1,1-dimethylsilepan-4-yl)-2-phenyl-4H-pyrrolo[2,3-d]thiazole-5-carboxamide]
MIC (M. ab_ATCC): > 64 mg/L
MIC (M. tb H37Rv): 0.012 mg/L (≈ 0.0313 µM)

COc1nc2[nH]c(C(=O)NC3CCC[Si](C)(C)CC3)cc2s1 (racemic) [MPL-395, N-(1,1-dimethylsilepan-4-yl)-2-methoxy-4H-pyrrolo[2,3-d]thiazole-5-carboxamide]
MIC (M. ab_ATCC): 1 mg/L (≈ 2.96 µM)
MIC (M. tb H37Rv): 0.047 mg/L (≈ 0.139 µM)

C[Si]1(C)CCCC(NC(=O)c2cc3sc(-c4ccccc4)nc3[nH]2)CC1 (single isomer, unassigned) [MPL-357A, N-(1,1-dimethylsilepan-4-yl)-2-phenyl-4H-pyrrolo[2,3-d]thiazole-5-carboxamide]
M. tb H37Rv: MIC-MABA (M. tb H37Rv): 0.007 mg/L

C[Si]1(C)CCCC(NC(=O)c2cc3sc(-c4ccccc4)nc3[nH]2)CC1 (single isomer, unassigned) [MPL-357B, N-(1,1-dimethylsilepan-4-yl)-2-phenyl-4H-pyrrolo[2,3-d]thiazole-5-carboxamide]
M. tb H37Rv: MIC-MABA (M. tb H37Rv): 0.110 mg/L

COc1nc2[nH]c(C(=O)NC3CCC[Si](C)(C)CC3)cc2s1 (single isomer, unassigned) [MPL-395A, N-(1,1-dimethylsilepan-4-yl)-2-methoxy-4H-pyrrolo[2,3-d]thiazole-5-carboxamide]
M. ab_ATCC: MIC MHII: MIC (M. ab_ATCC): 0.5 mg/L
M. tb H37Rv: MIC-MABA (M. tb H37Rv): 0.030 mg/L

COc1nc2[nH]c(C(=O)NC3CCC[Si](C)(C)CC3)cc2s1 (single isomer, unassigned) [MPL-395B, N-(1,1-dimethylsilepan-4-yl)-2-methoxy-4H-pyrrolo[2,3-d]thiazole-5-carboxamide]
M. ab_ATCC: MIC MHII: MIC (M. ab_ATCC): >64 mg/L
M. tb H37Rv: MIC-MABA (M. tb H37Rv): 0.999 mg/L

CC1CCC(NC(=O)c2cc3sc(-c4ccccc4)nc3[nH]2)CC1 (single isomer, unassigned) [MPL-433A, N-(4-methylcyclohexyl)-2-phenyl-4H-pyrrolo[2,3-d]thiazole-5-carboxamide]
MIC (M. tb H37Rv): > 1 mg/L

CC1CCC(NC(=O)c2cc3sc(-c4ccccc4)nc3[nH]2)CC1 (single isomer, unassigned) [MPL-433B, N-(4-methylcyclohexyl)-2-phenyl-4H-pyrrolo[2,3-d]thiazole-5-carboxamide]
M. tb H37Rv: MIC-MABA (M. tb H37Rv): 0.69 mg/L

Cc1nc2[nH]c(C(=O)NC3CCC(C)(C)CC3)cc2s1 [MPL-020, N-(4,4-dimethylcyclohexyl)-2-methyl-4H-pyrrolo[2,3-d]thiazole-5-carboxamide]
MIC (M. ab_ATCC): 2 mg/L (≈ 6.86 µM)
MIC (M. tb H37Rv): 0.53 mg/L (≈ 1.82 µM)

CC1(C)CCC(NC(=O)c2cc3scnc3[nH]2)CC1 [MPL-021, N-(4,4-dimethylcyclohexyl)-4H-pyrrolo[2,3-d]thiazole-5-carboxamide]
MIC (M. ab_ATCC): > 64 mg/L
MIC (M. tb H37Rv): 1.3 mg/L (≈ 4.69 µM)

Cc1nc2[nH]c(C(=O)N[C@H]3C[C@H]4C[C@@H]([C@@H]3C)C4(C)C)cc2s1 [MPL-025, 2-methyl-N-[(1S,2S,3S,5R)-2,6,6-trimethylnorpinan-3-yl]-4H-pyrrolo[2,3-d]thiazole-5-carboxamide]
MIC (M. ab_ATCC): 4 mg/L (≈ 12.6 µM)
MIC (M. tb H37Rv): 0.71 mg/L (≈ 2.24 µM)

C[C@@H]1[C@@H](NC(=O)c2cc3scnc3[nH]2)C[C@H]2C[C@@H]1C2(C)C [MPL-026, N-[(1S,2S,3S,5R)-2,6,6-trimethylnorpinan-3-yl]-4H-pyrrolo[2,3-d]thiazole-5-carboxamide]
MIC (M. tb H37Rv): 3.1 mg/L (≈ 10.2 µM)

Cc1nc2[nH]c(C(=O)NC3CCCCCCC3)cc2s1 [MPL-042, N-cyclooctyl-2-methyl-4H-pyrrolo[2,3-d]thiazole-5-carboxamide]
MIC (M. ab_ATCC): > 64 mg/L
MIC (M. tb H37Rv): 0.35 mg/L (≈ 1.2 µM)

Cc1nc2cc(C(=O)N[C@H]3C[C@H]4C[C@@H]([C@@H]3C)C4(C)C)[nH]c2s1 [MPL-090, 2-methyl-N-((1S,2S,3S,5R)-2,6,6-trimethylbicyclo[3.1.1]heptan-3-yl)-4H-pyrrolo[3,2-d]thiazole-5-carboxamide]
MIC (M. ab_ATCC): > 64 mg/L
MIC (M. tb H37Rv): 3.2 mg/L (≈ 10.1 µM)

Cc1nc2cc(C(=O)NC3CCCCCCC3)[nH]c2s1 [MPL-091, N-cyclooctyl-2-methyl-4H-pyrrolo[3,2-d]thiazole-5-carboxamide]
MIC (M. ab_ATCC): > 64 mg/L
MIC (M. tb H37Rv): > 3.2 mg/L

O=C(NC1CCCCCCC1)c1cc2sc(C3CC3)nc2[nH]1 [MPL-142, N-cyclooctyl-2-cyclopropyl-4H-pyrrolo[2,3-d]thiazole-5-carboxamide]
MIC (M. ab_ATCC): > 64 mg/L
MIC (M. tb H37Rv): 0.93 mg/L (≈ 2.93 µM)

C[C@@H]1[C@@H](NC(=O)c2cc3sc(C4CC4)nc3[nH]2)C[C@H]2C[C@@H]1C2(C)C [MPL-144, 2-cyclopropyl-N-((1S,2S,3S,5R)-2,6,6-trimethylbicyclo[3.1.1]heptan-3-yl)-4H-pyrrolo[2,3-d]thiazole-5-carboxamide]
MIC (M. ab_ATCC): > 64 mg/L
MIC (M. tb H37Rv): 1.5 mg/L (≈ 4.37 µM)

Cc1c(C(=O)N[C@H]2C[C@H]3C[C@@H]([C@@H]2C)C3(C)C)[nH]c2nc(C3CC3)sc12 [MPL-150, 2-cyclopropyl-6-methyl-N-((1S,2S,3S,5R)-2,6,6-trimethylbicyclo[3.1.1]heptan-3-yl)-4H-pyrrolo[2,3-d]thiazole-5-carboxamide]
MIC (M. ab_ATCC): > 64 mg/L
MIC (M. tb H37Rv): 0.3 mg/L (≈ 0.839 µM)

Cc1nc2[nH]c(C(=O)NC3CC[Si](C)(C)CC3)cc2s1 [MPL-205, N-(1,1-dimethylsilinan-4-yl)-2-methyl-4H-pyrrolo [2,3-d]thiazole-5-carboxamide]
MIC (M. ab_ATCC): > 64 mg/L
MIC (M. tb H37Rv): 0.18 mg/L (≈ 0.585 µM)

Cc1nc2cc(C(=O)NC3CC[Si](C)(C)CC3)[nH]c2s1 [MPL-206, N-(1,1-dimethylsilinan-4-yl)-2-methyl-4H-pyrrolo[3,2-d]thiazole-5-carboxamide]
MIC (M. ab_ATCC): > 64 mg/L
MIC (M. tb H37Rv): > 1.6 mg/L

Cc1nc2[nH]c(C(=O)N[C@H]3C[C@H]4C[C@H](C4(C)C)[C@@]3(C)O)cc2s1 [MPL-224, N-[(1R,2R,3S,5R)-2-hydroxy-2,6,6-trimethyl-norpinan-3-yl]-2-methyl-4H-pyrrolo[2,3-d]thiazole-5-carboxamide]
MIC (M. ab_ATCC): > 64 mg/L
MIC (M. tb H37Rv): 0.39 mg/L (≈ 1.17 µM)

Cc1c(C(=O)NC2CC[Si](C)(C)CC2)[nH]c2nc(C3CC3)sc12 [MPL-228, 2-cyclopropyl-N-(1,1-dimethylsilinan-4-yl)-6-methyl-4H-pyrrolo[2,3-d]thiazole-5-carboxamide]
MIC (M. ab_ATCC): > 64 mg/L
MIC (M. tb H37Rv): 0.061 mg/L (≈ 0.176 µM)

C[Si]1(C)CCC(NC(=O)c2cc3sc(C4CC4)nc3[nH]2)CC1 [MPL-240, 2-cyclopropyl-N-(1,1-dimethylsilinan-4-yl)-4H-pyrrolo[2,3-d]thiazole-5-carboxamide]
MIC (M. ab_ATCC): 0.5 mg/L (≈ 1.5 µM)
MIC (M. tb H37Rv): 0.46 mg/L (≈ 1.38 µM)

Cc1c(C(=O)NC2CCCCCCC2)[nH]c2nc(C3CC3)sc12 [MPL-291, N-cyclooctyl-2-cyclopropyl-6-methyl-4H-pyrrolo[2,3-d]thiazole-5-carboxamide]
MIC (M. ab_ATCC): > 64 mg/L
MIC (M. tb H37Rv): 0.372 mg/L (≈ 1.12 µM)

Cc1c(C(=O)NC2CCCC[Si](C)(C)CC2)[nH]c2nc(C3CC3)sc12 (centres unmarked) [MPL-293, 2-cyclopropyl-N-(1,1-dimethylsilocan-4-yl)-6-methyl-4H-pyrrolo [2,3-d]thiazole-5-carboxamide]
MIC (M. ab_ATCC): > 64 mg/L
MIC (M. tb H37Rv): 0.062 mg/L (≈ 0.165 µM)

C[Si]1(C)CCC(NC(=O)c2cc3sc(C4CC4)nc3[nH]2)C1 (centres unmarked) [MPL-297, 2-cyclopropyl-N-(1,1-dimethylsilolan-3-yl)-4H-pyrrolo[2,3-d]thiazole-5-carboxamide]
MIC (M. ab_ATCC): > 64 mg/L
MIC (M. tb H37Rv): 0.982 mg/L (≈ 3.07 µM)

C[Si]1(C)CCCC(NC(=O)c2cc3sc(C4CC4)nc3[nH]2)CCC1 [MPL-304, 2-cyclopropyl-N-(1,1-dimethylsilocan-5-yl) -4H-pyrrolo[2,3-d]thiazole-5-carboxamide]
MIC (M. ab_ATCC): > 64 mg/L
MIC (M. tb H37Rv): 0.291 mg/L (≈ 0.805 µM)

C[Si]1(C)CCC(NC(=O)c2cc3sc(-c4ccccc4)nc3[nH]2)CC1 [MPL-308, N-(1,1-dimethylsilinan-4-yl)-2-phenyl-4H-pyrrolo[2,3-d]thiazole-5-carboxamide]
MIC (M. ab_ATCC): > 64 mg/L
MIC (M. tb H37Rv): 0.007 mg/L (≈ 0.0189 µM)

COc1nc2[nH]c(C(=O)NC3CC[Si](C)(C)CC3)cc2s1 [MPL-309, N-(1,1-dimethylsilinan-4-yl)-2-methoxy-4H-pyrrolo[2,3-d]thiazole-5-carboxamide]
MIC (M. ab_ATCC): 0.625 mg/L (≈ 1.93 µM)
MIC (M. tb H37Rv): 0.088 mg/L (≈ 0.272 µM)

C[Si]1(C)CCC(NC(=O)c2[nH]c3sc(C4CC4)nc3c2Br)CC1 [MPL-311, 6-bromo-2-cyclopropyl-N-(1,1-dimethylsilinan-4-yl)-4H-pyrrolo[3,2-d]thiazole-5-carboxamide]
MIC (M. ab_ATCC): > 64 mg/L
MIC (M. tb H37Rv): 0.457 mg/L (≈ 1.11 µM)

Cc1c(C(=O)NC2CC[Si](C)(C)CC2)[nH]c2sc(C(C)C)nc12 [MPL-312, N-(1,1-dimethylsilinan-4-yl)-2-isopropyl-6-methyl-4H-pyrrolo[3,2-d]thiazole-5-carboxamide]
MIC (M. ab_ATCC): > 64 mg/L
MIC (M. tb H37Rv): 0.498 mg/L (≈ 1.42 µM)

COc1nc2cc(C(=O)NC3CC[Si](C)(C)CC3)[nH]c2s1 [MPL-313, N-(1,1-dimethylsilinan-4-yl)-2-methoxy-4H-pyrrolo[3,2-d]thiazole-5-carboxamide]
MIC (M. ab_ATCC): > 64 mg/L
MIC (M. tb H37Rv): 0.254 mg/L (≈ 0.785 µM)

O=C(NC1CC[Si]2(CCCC2)CC1)c1cc2sc(-c3ccccc3)nc2[nH]1 [MPL-358, 2-phenyl-N-(5-silaspiro[4.5]decan-8-yl)-4H-pyrrolo[2,3-d]thiazole-5-carboxamide]
MIC (M. ab_ATCC): > 64 mg/L
MIC (M. tb H37Rv): 0.033 mg/L (≈ 0.0834 µM)

O=C(NC1CC[Si]2(CCCCC2)CC1)c1cc2sc(-c3ccccc3)nc2[nH]1 [MPL-359, 2-phenyl-N-(6-silaspiro[5.5]undecan-3-yl)-4H-pyrrolo[2,3-d]thiazole-5-carboxamide]
MIC (M. ab_ATCC): > 64 mg/L
MIC (M. tb H37Rv): 0.014 mg/L (≈ 0.0342 µM)

CC(C)(C)c1ccc(-c2nc3[nH]c(C(=O)NC4CC[Si]5(CCCCC5)CC4)cc3s2)cc1 [MPL-426, 2-(4-tert-butylphenyl)-N-(6-silaspiro[5.5]undecan-3-yl)-4H-pyrrolo[2,3-d]thiazole-5-carboxamide]
MIC (M. tb H37Rv): 0.12 mg/L (≈ 0.258 µM)

COc1nc2[nH]c(C(=O)N[C@H]3C[C@H]4C[C@H](C4(C)C)[C@@]3(C)O)cc2s1 [MPL-457, N-[(1R,2R,3S,5R)-2-hydroxy-2,6,6-trimethyl-norpinan-3-yl]-2-methoxy-4H-pyrrolo[2,3-d]thiazole-5-carboxamide]
MIC (M. tb H37Rv): > 1 mg/L
